Reference: PMC9217999 (Targeted Oncology, 2022)
Marks after values point to notes of the source that are not given here.

Columns and labels:
[1] = Cobimetinib plasma pharmacokinetics in iMATRIX-cobi; type: in vivo, human; settings: for Cmax: human, plasma, oral, 1 mg/kg, Steady state Cmax, geometric mean (%CV), 1.0 mg/kg suspension
[2] = test system: unresectable/metastatic BRAF V600E/K-mutated melanoma; settings: combined with vemurafenib versus vemurafenib plus placebo, p < 0.0001; cited from earlier work
P-glycoprotein = settings: cited from earlier work
[3] = test system: relapsed/refractory solid tumors with known/expected MAPK pathway involvement; assay: Investigator-assessed anti-tumor activity in iMATRIX-cobi; type: in vivo, human
[4] = test system: xenograft models of pediatric solid tumors; settings: ref Roche data on file; cited from earlier work
[5] = Dose escalation PN in NF1 (n = 12)

## O=C(c1ccc(F)c(F)c1Nc1ccc(I)cc1F)N1CC(O)([C@@H]2CCCCN2)C1 [cobimetinib]
[1]; dose escalation (n = 8)
  Cmax: 179 ng/mL
[1]; expansion (n = 9)
  Cmax: 116 ng/mL
[1]; pediatric patients
  Exposure-safety relationships: no exposure-safety relationships
[2]
  Investigator-assessed progression-free survival (PFS): significantly improved
  Objective response rate (ORR): significantly improved
P-glycoprotein
  P-glycoprotein substrate: substrate of P-glycoprotein
[3]; All LGG patients (n = 32)
  Best overall response: CR: 0 n (%)
  Best overall response: Non-CR/Non-PD: 1 (3) n (%)
  Best overall response: Non-evaluable: 1 (3) n (%)
  Best overall response: Not available: 2 (6) n (%)
  Best overall response: ORR: 3 (9) n (%)
  Best overall response: PD: 7 (22) n (%)
  Best overall response: PR: 3 (9) n (%)
  Best overall response: SD: 18 (56) n (%)
[3]; Dose escalation LGG (n = 20)
  Best overall response: CR: 0 n (%)
  Best overall response: Non-CR/Non-PD: 1 (5) n (%)
  Best overall response: Non-evaluable: 0 n (%)
  Best overall response: Not available: 2 (10) n (%)
  Best overall response: ORR: 2 (10) n (%)
  Best overall response: PD: 5 (25) n (%)
  Best overall response: PR: 2 (10) n (%)
  Best overall response: SD: 10 (50) n (%)
[3]; [5]
  Best overall response: CR: 0 n (%)
  Best overall response: Non-CR/Non-PD: 0 n (%)
  Best overall response: Non-evaluable: 0 n (%)
  Best overall response: Not available: 0 n (%)
  Best overall response: ORR: 0 n (%)
  Best overall response: PD: 0 n (%)
  Best overall response: PR: 0 n (%)
  Best overall response: SD: 12 (100) n (%)
[3]; Expansion LGG (n = 12)
  Best overall response: CR: 0 n (%)
  Best overall response: Minor response per RANO criteria: 1 (8)^a n (%)
  Best overall response: Non-CR/Non-PD: 0 n (%)
  Best overall response: Non-evaluable: 1 (8) n (%)
  Best overall response: Not available: 0 n (%)
  Best overall response: ORR: 1 (8) n (%)
  Best overall response: PD: 2 (17) n (%)
  Best overall response: PR: 1 (8) n (%)
  Best overall response: SD: 8 (67) n (%)
[3]; Overall population (n = 56)
  Best overall response: CR: 0 n (%)
  Best overall response: Non-CR/Non-PD: 1 (2) n (%)
  Best overall response: Non-evaluable: 2 (4) n (%)
  Best overall response: Not available: 4 (7) n (%)
  Best overall response: ORR: 3 (5) n (%)
  Best overall response: PR: 3 (5) n (%)
  Best overall response: SD: 33 (59) n (%)
[3]; in vivo
  Median DoR: not reached
[3]; overall
  Median duration of stable disease: 11.0 months
  Non-evaluable: 4%
[3]; overall population
  Median OS: not reached
[3]; overall, 3/56, all partial responses in LGG
  Overall response rate: 5.4%
[3]; overall, 3/56 patients, all with LGG
  Partial response (PR): 5%
[3]; overall, 33/56
  Stable disease: 59%
[4]
  Activity in xenograft models: activity observed
